In one experiment the test system is FemX. The arrangement: method as in PMID 23203090. Conditions: 72 h; cited from earlier work.
A further experiment relates to 518A2. The arrangement: method as in PMID 27936296. Conditions: 518A2, 72 h, cited from earlier work.
In a further experiment the test system is CCD 841 CoN. Nature of the experiment: MTT viability assay, normal colon epithelial cells. It counts as cell-based, human. The following applies: Homo sapiens, CCD-841CoN; normal colon epithelial cells, 24 h, reference drug; read-out: IC50. The source says:
(§1) Cell lines of different origins were used in the study and grouped as follows: prostate panel (human prostate carcinomas: DU145, derived from metastatic site: brain; grade IV PC3, derived from metastatic site: bone; LNCaP, derived from the metastatic site: lymph node; prostate epithelial, PNT2), colon panel (colorectal adenocarcinomas: HT29, originating from a primary tumor; Duke’s type C DLD-1, with the potential to lymph node metastasis; highly metastatic HCT116; colon epithelial cells CCD 841 CoN), thyroid panel (follicular thyroid carcinoma FTC133, anaplastic thyroid carcinoma 8505C, papillary thyroid carcinoma TPC-1, normal thyroid follicular epithelial Nthy-ori 3–1), breast panel (ER-positive breast adenocarcinoma MCF7, ER-negative breast adenocarcinoma MDA-MB-231, breast epithelial MCF10A), brain panel (neuroblastoma SH-SY5Y, glioblastoma U-87 MG, murine astrocytes C8D1A). All cell lines were purchased from Merck (Darmstadt, Germany).
(§2) Cells were grown under standard conditions (37 °C, 5% CO2) and culture media (DMEM/F12 for PNT2, PC3, FTC133, 8505 C, MDA-MB-231, TPC-1; DMEM Low Glucose for DU145; DMEM High Glucose for HCT116, DLD-1, SH-SY5Y, U87MG, C8D1A; MEM with NEAA for MCF7; MEM for CCD 841 CoN; McCoy’s for HT29; RPMI1640 with sodium pyruvate for LNCaP; DMEM/F12 with 20 ng/mL epidermal growth factor (EGF), 10 μg/mL insulin, 0.5 μg/mL hydrocortisone, 100 ng/mL cholera toxin) for MCF10A), supplemented with 10% fetal bovine serum (FBS) or 5% donor horse serum for MCF10A, and 1% antibiotics solution (10,000 U penicillin and 10 mg streptomycin/mL). The tested substances were prepared as 10 mg/mL stock solutions in DMSO and further diluted in the culture media to the working concentrations. Cells were treated with UA enantiomers at the concentration range of 0–50 µg/mL. The influence of DMSO on cell viability was also examined, with the final concentration […], and no toxic effect was noted.
(§3) The cells were seeded onto 96-well plates at a density of 1.5 × 10^4 cells/well. After 24 h UA enantiomers were added. Cell viability was determined after 24, 48, and 72 h by the MTT assay, as described previously. Doxorubicin was used as a reference cytostatic drug. All analyses were performed in triplicate; cell viability was expressed as % of control, untreated cells (mean ± SD), and IC50 values (concentration at which cell viability is inhibited by 50%), if possible.

A further experiment deals with PNT2. The experiment in a line: MTT viability assay, normal prostate epithelial cells. The following applies: Homo sapiens, PNT2; normal prostate epithelial cells, reference drug, time not given; read-out: IC50. It counts as cell-based, human.
Text: as §1, §2, §3

In a further experiment the test system is C8D1A. The experiment in a line: MTT viability assay, normal astrocytes C8D1A. It counts as cell-based, murine. The following applies: Mus musculus, C8-D1A; murine astrocytes, 24 h, reference drug.
Text: as §1, §2, §3

In another experiment the test system is WM793 cells. The arrangement: method as in PMID 34577645. Conditions: WM793, reference drug, time not given; cited from earlier work.
The next experiment relates to HepG2 cells. The arrangement: method as in PMID 40368021. The following applies: HepG2, 24 h, reference drug; cited from earlier work.
Experiment [1] relates to human non-cancerous skin cells. The arrangement: method as in PMID 34500657. The following applies: 24 h, reference drug; cited from earlier work.

≈ marks a conversion by molar mass, not a printed value. Where two headings read alike, the source gives them in different places.

Turning to `CC(=O)c1c(O)c(C)c(O)c2c1OC1=CC(=O)C(C(C)=O)C(=O)C12C` (stereo not drawn) [UA, Usnic acid], the IC50 is 12.72 µg/mL (≈ 36.9 µM) in the experiment with FemX, “≈ 2 µg/mL” with 518A2 (recalculated from µM by the authors) and 5.4 µM with 518A2 (read-out: IC50).
Regarding `COc1cccc2c1C(=O)c1c(O)c3c(c(O)c1C2=O)C[C@@](O)(C(=O)CO)C[C@@H]3O[C@H]1C[C@H](N)[C@H](O)[C@H](C)O1` [doxorubicin, reference compound], the IC50 with CCD 841 CoN was 2.25 µg/mL (≈ 4.14 µM); in the experiment with PNT2, 1.4 µg/mL (≈ 2.58 µM); in the experiment with C8D1A, 2.25 µg/mL (≈ 4.14 µM); in the experiment on WM793 cells, > 100 µg/mL; in experiment [1] it was 4.7 µg/mL (≈ 8.65 µM). Further, in the experiment with HepG2 cells, the “IC50 (hepatotoxicity)” value is 1.03 µg/mL (≈ 1.9 µM).

These data come from paper PMC12298648, “An Evaluation of the Cytotoxicity and Safety Profile of Usnic Acid for a Broad Panel of Human Cancers and Normal Cells with Respect to Its Enantiospecificity” (Molecules, 2025).
